Measurements reported in ChEMBL document CHEMBL1268979, “Discovery of highly potent and efficacious MC4R agonists with spiroindane N-Me-1,2,4-triazole privileged structures for the treatment of obesity” (Bioorg Med Chem Lett, 2010).
Active and inactive are the calls of the source. The rule behind the calls is not given here.

Key:
[1] = molecular target: T1, Melanocortin receptor 4 (Homo sapiens, UniProt P32245); test: Agonist activity at human MC4 receptor assessed as receptor activation; assay type: functional
T1 sequence (P32245 whole entry): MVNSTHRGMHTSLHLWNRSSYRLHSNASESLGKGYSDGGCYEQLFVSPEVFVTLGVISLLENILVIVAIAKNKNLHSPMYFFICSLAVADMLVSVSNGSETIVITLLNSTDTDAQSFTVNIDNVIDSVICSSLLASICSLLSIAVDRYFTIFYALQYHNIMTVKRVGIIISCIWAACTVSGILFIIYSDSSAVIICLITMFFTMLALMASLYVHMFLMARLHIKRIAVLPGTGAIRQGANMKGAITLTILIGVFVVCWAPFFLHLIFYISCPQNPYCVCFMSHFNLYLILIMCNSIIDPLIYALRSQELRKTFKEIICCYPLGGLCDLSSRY

[2] = species on record: Homo sapiens; test: Agonist activity at human MC1b receptor assessed as receptor activation; assay type: functional; design: concentration or dose not given beside the values
[3] = Agonist activity at human MC1b receptor; assay type: functional
[4] = tested on: Mus musculus; test: Reduction in food intake in wild type mouse at 10 mg/kg, po after 18 hrs; assay type: functional
[5] = tested on: Mus musculus; test: Reduction in food intake in MC4R/3R knockout mouse at 10 mg/kg, po after 4 hrs; assay type: functional
[6] = tested on: Mus musculus; test: Reduction in food intake in MC4R/3R knockout mouse at 10 mg/kg, po after 18 hrs; assay type: functional
[7] = Half life in Sprague-Dawley rat at 1 mg/kg, iv and 4 mg/kg, po; assay type: ADME, organism-based; conditions: in vivo
[8] = Clearance in Sprague-Dawley rat at 1 mg/kg, iv and 4 mg/kg, po; assay type: ADME, organism-based; conditions: in vivo
[9] = tested on: Mus musculus; test: Reduction in food intake in DIO mouse obesity model at 6 mg/kg, po after 4 hrs; assay type: functional
[10] = Volume of distribution in Sprague-Dawley rat at 1 mg/kg, iv and 4 mg/kg, po; assay type: ADME, organism-based; conditions: in vivo
[11] = tested on: Mus musculus; test: Reduction in food intake in wild type mouse at 10 mg/kg, po after 4 hrs; assay type: functional
[12] = tested on: Mus musculus; test: Reduction in food intake in DIO mouse obesity model at 6 mg/kg, po after 18 hrs; assay type: functional
[13] = Oral bioavailability in Sprague-Dawley rat at 1 mg/kg, iv and 4 mg/kg, po; assay type: ADME, organism-based; conditions: in vivo
[14] = molecular target: T1, Melanocortin receptor 4; test: Agonist activity at human MC4 receptor; assay type: functional
[15] = tested on: Mus musculus; test: Reduction in food intake in DIO mouse obesity model at 20 mg/kg, po after 18 hrs; assay type: functional
[16] = tested on: Mus musculus; test: Reduction in food intake in DIO mouse obesity model at 3 mg/kg, po after 18 hrs; assay type: functional
[17] = tested on: Mus musculus; test: Reduction in food intake in DIO mouse obesity model at 20 mg/kg, po after 4 hrs; assay type: functional
[18] = molecular target: T1, Melanocortin receptor 4; test: Inhibition of human MC4 receptor
[19] = tested on: Mus musculus; test: Reduction in food intake in DIO mouse obesity model at 3 mg/kg, po after 4 hrs; assay type: functional
[20] = tested on: Mus musculus; test: Reduction in food intake in wild type mouse at 20 mg/kg, po after 4 hrs; assay type: functional
[21] = tested on: Mus musculus; test: Reduction in food intake in wild type mouse at 20 mg/kg, po after 18 hrs; assay type: functional
[22] = tested on: Mus musculus; test: Reduction in food intake in DIO mouse obesity model at 1 mg/kg, po measured for 18 hrs; assay type: functional
[23] = tested on: Mus musculus; test: Reduction in food intake in DIO mouse obesity model at 10 mg/kg, po measured for 18 hrs; assay type: functional
[24] = tested on: Mus musculus; test: Reduction in body weight in DIO mouse obesity model at 3 mg/kg, po after 4 hrs; assay type: functional, organism-based; design: dose 3 mg/kg
[25] = tested on: Mus musculus; test: Reduction in food intake in DIO mouse obesity model at 3 mg/kg, po measured for 18 hrs; assay type: functional
[26] = tested on: Mus musculus; test: Reduction in body weight in DIO mouse obesity model at 6 mg/kg, po after 4 hrs; assay type: functional, organism-based; design: dose 6 mg/kg
[27] = tested on: Mus musculus; test: Reduction in body weight in DIO mouse obesity model at 20 mg/kg, po after 4 hrs; assay type: functional, organism-based; design: dose 20 mg/kg

Structure (SMILES)	Activity [1] [%]	Activity [2] [%]	EC50 [3] [nM]	half-life [7] [h]	clearance [8] [mL/min/kg]	Vd [10] [L/kg]	bioavailability [13] [%]	EC50 [14] [nM]	IC50 [18] [nM]	inhibition in vivo at 10 mg/kg [4] [%]	inhibition in vivo at 6 mg/kg [9] [%]	inhibition in vivo at 10 mg/kg [11] [%]	inhibition in vivo at 6 mg/kg [12] [%]	inhibition in vivo at 20 mg/kg [15] [%]	inhibition in vivo at 20 mg/kg [17] [%]	inhibition in vivo at 3 mg/kg [19] [%]	inhibition in vivo at 20 mg/kg [20] [%]	inhibition in vivo at 20 mg/kg [21] [%]	further results
Cc1cc2c(cc1Cl)C1(CCN(C(=O)[C@@H]3CCN(C(C)(C)C)C[C@H]3c3ccc(F)cc3F)CC1)C[C@@H]2C(C)(C)c1ncnn1C	96	37	1050	11	22	19	86	2.4	1.7	37	47	46	31	15	30	29	24	17	inhibition in vivo at 10 mg/kg [5]: 40%; inhibition in vivo at 10 mg/kg [6]: 19%; inhibition in vivo at 3 mg/kg [16]: 8%
Cc1nnc(C(C)(C)[C@H]2CC3(CCN(C(=O)[C@@H]4CN(C(C)(C)C)C[C@H]4c4ccc(F)cc4F)CC3)c3cc(Cl)c(C)cc32)o1	97	88	1140	–	–	–	–	2.3	1.9	–	–	–	–	–	–	–	–	–	–
Cc1nc(C(C)(C)C2CC3(CCN(C(=O)[C@@H]4CN(C(C)(C)C)C[C@H]4c4ccc(F)cc4F)CC3)c3cc(Cl)c(C)cc32)no1 (stereo not given in full)	71	46	855	–	–	–	–	14	5.7	–	–	–	–	–	–	–	–	–	–
Cc1cc2c(cc1Cl)C1(CCN(C(=O)[C@@H]3CN(C4CCOCC4)C[C@H]3c3ccc(F)cc3F)CC1)C[C@@H]2C(C)(C)c1ncnn1C	105	54	708	3.4	37	10	35	0.9	0.84	22	37	40	18	11	31	19	28	13	inhibition in vivo at 10 mg/kg [5]: 20%
Cc1cc2c(cc1Cl)C1(CCN(C(=O)[C@@H]3CN(C(C)(C)C)C[C@H]3c3ccc(F)cc3F)CC1)C[C@@H]2C(C)(C)c1ncnn1C	106	80	125	9.4	6.7	5	26	0.23	0.41	32	51	47	27	18	38	29	24	17	inhibition in vivo at 10 mg/kg [5]: 67%; inhibition in vivo at 10 mg/kg [6]: 43%; inhibition in vivo at 3 mg/kg [16]: 16%
Cc1cnc(C(C)(C)[C@H]2CC3(CCN(C(=O)[C@@H]4CN(C(C)(C)C)C[C@H]4c4ccc(F)cc4F)CC3)c3cc(Cl)c(C)cc32)o1	99	57	1650	–	–	–	–	48	9.7	–	–	–	–	–	–	–	–	–	–
Cc1cc2c(cc1Cl)C1(CCN(C(=O)[C@@H]3CC(N(C)C4CCOCC4)C[C@H]3c3ccc(F)cc3F)CC1)C[C@@H]2C(C)(C)c1ncnn1C (stereo not given in full)	99	49	250	5.1	24	9.7	20	0.11	0.43	30	56	46	28	17	39	31	35	18	inhibition in vivo at 1 mg/kg [22]: 32%; inhibition in vivo at 10 mg/kg [23]: 31%; Activity [24]: Active; inhibition in vivo at 3 mg/kg [16]: 15%; inhibition in vivo at 3 mg/kg [25]: 56%; Activity [26]: Active; Activity [27]: Active
Cc1cc2c(cc1Cl)C1(CCN(C(=O)[C@@H]3CN(C(C)(C)C)C[C@H]3c3ccc(F)cc3F)CC1)CC2C(C)(C)c1cnn[nH]1 (stereo not given in full)	82	31	1040	–	–	–	–	4.2	16	–	–	–	–	–	–	–	–	–	–

Continued, in another order:

Activity [1] [%]	Activity [2] [%]	EC50 [3] [nM]	half-life [7] [h]	clearance [8] [mL/min/kg]	Vd [10] [L/kg]	bioavailability [13] [%]	EC50 [14] [nM]	IC50 [18] [nM]	Structure (SMILES)	inhibition in vivo at 10 mg/kg [4] [%]	inhibition in vivo at 6 mg/kg [9] [%]	inhibition in vivo at 10 mg/kg [11] [%]	inhibition in vivo at 6 mg/kg [12] [%]	inhibition in vivo at 20 mg/kg [15] [%]	inhibition in vivo at 20 mg/kg [17] [%]	inhibition in vivo at 3 mg/kg [19] [%]	inhibition in vivo at 20 mg/kg [20] [%]	inhibition in vivo at 20 mg/kg [21] [%]	further results
117	10	–	–	–	–	–	–	–	Cc1cc2c(cc1Cl)C1(CCN(C(=O)[C@@H]3CN(C(C)(C)C)C[C@H]3c3ccc(F)cc3F)CC1)CC2C(C)(C)c1nnco1 (stereo in doubt; 5d1) [listing 1 of 2 here]	–	–	–	–	–	–	–	–	–	–
–	–	138	–	–	–	–	2.2	1.3	Cc1cc2c(cc1Cl)C1(CCN(C(=O)[C@@H]3CN(C(C)(C)C)C[C@H]3c3ccc(F)cc3F)CC1)CC2C(C)(C)c1nnco1 (stereo in doubt; 5d2) [listing 1 of 2 here]	–	–	–	–	–	–	–	–	–	–
92	57	–	–	–	–	–	–	–	Cc1cc2c(cc1Cl)C1(CCN(C(=O)[C@@H]3CN(C(C)(C)C)C[C@H]3c3ccc(F)cc3F)CC1)CC2C(C)(C)c1nnco1 (stereo in doubt; 5d2) [listing 2 of 2 here]	–	–	–	–	–	–	–	–	–	–
–	–	–	–	–	–	–	211	49	Cc1cc2c(cc1Cl)C1(CCN(C(=O)[C@@H]3CN(C(C)(C)C)C[C@H]3c3ccc(F)cc3F)CC1)CC2C(C)(C)c1nnco1 (stereo in doubt; 5d1) [listing 2 of 2 here]	–	–	–	–	–	–	–	–	–	–
